Source: patent US11278547B2 (Strongbridge Dublin Limited, priority 2019, dated 2022)

What was measured:
OCT2 = molecular target: T1, OCT2 (Homo sapiens, UniProt O15244)
T1 sequence (O15244 1-555): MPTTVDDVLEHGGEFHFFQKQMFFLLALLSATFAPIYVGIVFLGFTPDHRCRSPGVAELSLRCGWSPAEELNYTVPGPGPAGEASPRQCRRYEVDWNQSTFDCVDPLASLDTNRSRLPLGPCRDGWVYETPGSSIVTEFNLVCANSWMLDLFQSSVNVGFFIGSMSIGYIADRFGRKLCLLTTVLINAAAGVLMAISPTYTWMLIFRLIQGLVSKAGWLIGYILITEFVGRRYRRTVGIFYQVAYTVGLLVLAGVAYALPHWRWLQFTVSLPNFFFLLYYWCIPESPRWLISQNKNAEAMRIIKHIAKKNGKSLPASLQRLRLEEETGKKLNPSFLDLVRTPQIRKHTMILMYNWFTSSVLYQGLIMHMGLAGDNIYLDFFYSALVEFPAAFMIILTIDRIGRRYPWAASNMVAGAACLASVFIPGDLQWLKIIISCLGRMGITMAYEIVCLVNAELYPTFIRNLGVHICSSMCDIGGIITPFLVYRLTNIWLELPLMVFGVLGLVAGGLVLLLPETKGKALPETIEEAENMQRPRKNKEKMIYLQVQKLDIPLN

MATE1 = molecular target: T2, MATE1 (Homo sapiens, UniProt Q96FL8)
T2 sequence (Q96FL8 1-570): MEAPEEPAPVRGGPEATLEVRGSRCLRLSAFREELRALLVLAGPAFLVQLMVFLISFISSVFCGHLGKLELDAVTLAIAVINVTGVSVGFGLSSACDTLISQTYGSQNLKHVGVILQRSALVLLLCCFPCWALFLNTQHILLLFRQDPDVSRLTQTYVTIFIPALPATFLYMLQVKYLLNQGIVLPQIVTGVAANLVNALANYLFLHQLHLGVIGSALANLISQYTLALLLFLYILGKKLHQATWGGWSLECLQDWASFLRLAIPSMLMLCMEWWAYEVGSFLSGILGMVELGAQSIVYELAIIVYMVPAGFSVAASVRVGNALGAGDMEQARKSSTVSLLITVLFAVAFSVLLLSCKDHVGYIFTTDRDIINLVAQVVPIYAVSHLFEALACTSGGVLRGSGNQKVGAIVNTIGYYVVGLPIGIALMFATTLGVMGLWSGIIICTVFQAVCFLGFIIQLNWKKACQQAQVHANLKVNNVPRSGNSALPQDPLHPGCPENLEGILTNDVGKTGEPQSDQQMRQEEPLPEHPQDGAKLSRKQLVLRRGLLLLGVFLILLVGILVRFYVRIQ

[1] = Cushing's syndrome patients, reportedly; cited from earlier work

| SMILES | IC50 (OCT2) | IC50 (MATE1) | patients in whom hypercortisolism is normalized [1] |
| --- | --- | --- | --- |
| CC(=O)N1CCN(c2ccc(OCC3COC(Cn4ccnc4)(c4ccc(Cl)cc4Cl)O3)cc2)CC1 (racemic) [Ketoconazole, ketoconazole] | 1520 nM | 279 nM | 30-70% |
| CC(=O)N1CCN(c2ccc(OC[C@@H]3CO[C@@](Cn4ccnc4)(c4ccc(Cl)cc4Cl)O3)cc2)CC1 (relative stereo) [Levoketoconazole, 2S,4R cis-1-acetyl-4-[4-[[2-(2,4-dichlorophenyl)-2-(1H-imidazol-1-ylmethyl)-1,3-dioxolan-4-yl]methoxyl]phenyl]piperazine] | 218 nM | 248 nM | – |
